Measurements as given in article PMC6198970, “Safety, efficacy, and dose response of the maturation inhibitor GSK3532795 (formerly known as BMS-955176) plus tenofovir/emtricitabine once daily in treatment-naive HIV-1-infected adults: Week 24 primary analysis from a randomized Phase IIb trial” (PLoS ONE, 2018).
Read-outs that look alike come from different tables or passages of the source.

Tests used:
[1] = cited from earlier work
HIV-1 = settings: ref AI468002, cited from earlier work
HIV-1 clinical isolates = settings: cited from earlier work
93 subtype B viruses = test system: 93 subtype B viruses; set-up: method as in protocol Section 1.4.1.2; settings: ref protocol Section 1.4.1.2, read-out: EC50, median; cited from earlier work
[2] = Population PK model (NONMEM); assay type: in vivo, HIV-1-infected adults
Method: Population PK analyses were conducted via non-linear mixed effects using non-linear mixed-effects modeling (NONMEM) software, version 7, level 2.0 (ICON Development Solutions, Hanover, Maryland, USA).[17] A summary of the population PK modeling methods and exposure response exploratory analyses for efficacy and safety is included in Supporting information.
Population pharmacokinetic (PK) analyses were conducted via nonlinear mixed-effects modelling using nonlinear mixed effects modeling (NONMEM) software, version 7, level 2.0 (ICON Development Solutions, Hanover, MD). Assessment of model adequacy and decision about increasing model complexity was driven by the data and guided by goodness-of-fit criteria, including visual inspection of diagnostic scatter plots (observed versus predicted concentration, residual/weighted residual versus predicted concentration or time and histograms of individual random effects, for example), successful convergence of the minimization routine, plausibility of parameter estimates, precision of parameter estimates, correlation between model parameter estimation errors < 0.95, and the Akaike information criterion (AIC), given the minimum objective function value and number of estimated parameters. An exploratory investigation of covariate-parameter relationships was undertaken as part of the population PK analysis. Predictive performance was assessed using stratified non-parametric bootstrapping (n=500). Following the construction of a suitable PK model, individual-specific steady-state exposure metrics were derived for exposure-response investigation. An exploratory plotting analysis was performed to investigate exposure–response relationships for efficacy and safety endpoints, where endpoints including fraction of participants with <40 c/mL at Week 24 (modified intent-to-treat population) and percentage of participants with Grade 1, 2, 3, and 4 gastrointestinal events (adverse events >7 days) were analysed as a function of exposure quantiles.

[3] = Adverse events through Week 24; assay type: in vivo, HIV-1-infected adults
Method: Physical examinations, measurement of vital signs, and clinical laboratory evaluations were performed at Weeks 4, 8, 12, 16 and 24, and participants were closely monitored for AEs and SAEs throughout. AEs were classified according to MedDRA version 19.0. The severity and relationship to study drug was assessed by the local investigator.

[4] = set-up: method as in protocol Section 1.4.1.2; settings: 300 mg/kg/day (AUC 279 g·h/mL); ref protocol Section 1.4.1.2; cited from earlier work
[5] = test system: human immunodeficiency virus type-2 (HIV-2) isolates; set-up: method as in protocol Section 1.4.1.2; settings: active against 1 of 3 HIV-2 isolates; ref protocol Section 1.4.1.2; cited from earlier work
P-gp = test system: P-gp; set-up: method as in protocol Section 1.4.1.2; settings: ref protocol Section 1.4.1.2; cited from earlier work
[6] = test system: HIV-1 with A364V or V362I plus secondary changes; set-up: method as in protocol Section 1.4.1.2; settings: ref protocol Section 1.4.1.2, cited from earlier work
[7] = test system: mouse P-glycoprotein (P-gp); settings: higher bioavailability in P-gp knock-out mice / with elacridar; ref protocol Section 1.4.1.2; cited from earlier work
OATP1B3 = test system: OATP1B3; set-up: method as in protocol Section 1.4.1.2; settings: ref protocol Section 1.4.1.2; cited from earlier work
[8] = Part A, clade B, 10 days monotherapy, 5 mg
[9] = GSK3532795: range across 60, 120, 180 mg arms, EFV 600 mg
[10] = GSK3532795 arms pooled, EFV 600 mg, abstract

**Q.** What does the source list for `C=C(C)[C@@H]1CC[C@]2(NCCN3CCS(=O)(=O)CC3)CC[C@]3(C)[C@H](CC[C@@H]4[C@@]5(C)CC=C(c6ccc(C(=O)O)cc6)C(C)(C)[C@@H]5CC[C@]43C)[C@@H]12` [GSK3532795]?
**A.** AUC at NOAEL ([1]; 30 mg/kg/day, ref protocol Section 1.4.1.2): 1.135e+08 µg·h/mL; ALT activity not recovered, fold ([1]; 100 mg/kg/day, 1 male, end of 2-week recovery, ref protocol Section 1.4.1.2): 1.94 x; AUC at dose with dose-limiting toxicity ([1]; 100 mg/kg/day, ref protocol Section 1.4.1.2): 357 g·h/mL; Finding at high dose ([1]; 300 mg/kg/day, Days 8 to 9, ref protocol Section 1.4.1.2): early euthanasia of all the rats; NOAEL ([1]; rat, in vivo): 30 mg/kg/day; Maximum decline log10 HIV-1 RNA, max (HIV-1; Part A, 10 mg): -1.76 Log10; Maximum decline log10 HIV-1 RNA, mean (HIV-1; Part A, 10 mg): -1.05 Log10; Maximum decline log10 HIV-1 RNA, median (HIV-1; Part A, 10 mg): -0.976 Log10; Maximum decline log10 HIV-1 RNA, min (HIV-1; Part A, 10 mg): -0.64 Log10; Maximum decline log10 HIV-1 RNA, max (HIV-1; Part A, 20 mg): -2.12 Log10; Maximum decline log10 HIV-1 RNA, mean (HIV-1; Part A, 20 mg): -1.17 Log10; Maximum decline log10 HIV-1 RNA, median (HIV-1; Part A, 20 mg): -1.115 Log10; Maximum decline log10 HIV-1 RNA, min (HIV-1; Part A, 20 mg): -0.13 Log10; Maximum decline log10 HIV-1 RNA, max (HIV-1; Part A, 40 mg): -1.88 Log10; Maximum decline log10 HIV-1 RNA, mean (HIV-1; Part A, 40 mg): -1.55 Log10; Maximum decline log10 HIV-1 RNA, median (HIV-1; Part A, 40 mg): -1.701 Log10; Maximum decline log10 HIV-1 RNA, min (HIV-1; Part A, 40 mg): -0.93 Log10; Maximum decline log10 HIV-1 RNA, max (HIV-1; Part A, 80 mg): -1.82 Log10; Maximum decline log10 HIV-1 RNA, mean (HIV-1; Part A, 80 mg): -1.52 Log10; Maximum decline log10 HIV-1 RNA, median (HIV-1; Part A, 80 mg): -1.555 Log10; Maximum decline log10 HIV-1 RNA, min (HIV-1; Part A, 80 mg): -1.04 Log10; Maximum decline log10 HIV-1 RNA, max (HIV-1; Part A, 120 mg): -2.07 Log10; Maximum decline log10 HIV-1 RNA, mean (HIV-1; Part A, 120 mg): -1.53 Log10; Maximum decline log10 HIV-1 RNA, median (HIV-1; Part A, 120 mg): -1.654 Log10; Maximum decline log10 HIV-1 RNA, min (HIV-1; Part A, 120 mg): -0.83 Log10; Maximum decline log10 HIV-1 RNA, max (HIV-1; [8]): -0.78 Log10; Maximum decline log10 HIV-1 RNA, mean (HIV-1; [8]): -0.49 Log10; Maximum decline log10 HIV-1 RNA, median (HIV-1; [8]): -0.498 Log10; Maximum decline log10 HIV-1 RNA, min (HIV-1; [8]): -0.22 Log10; Maximum decline log10 HIV-1 RNA, max (HIV-1; Part C, clade C, 40 mg): -2.03 Log10; Maximum decline log10 HIV-1 RNA, median (HIV-1; Part C, clade C, 40 mg): -1.285 Log10; Maximum decline log10 HIV-1 RNA, min (HIV-1; Part C, clade C, 40 mg): -1.04 Log10; Maximum decline log10 HIV-1 RNA, mean (HIV-1; Part C, clade C, 10 days monotherapy, 40 mg): -1.5 Log10; Safety in Phase 2a (HIV-1; alone or with ATV ± RTV for 10-28 days, preliminary): no deaths, SAEs, or AEs leading to discontinuation; Median maximal reductions in HIV-1 RNA (HIV-1; doses 40 mg SDD once daily and above, clade B and clade C): > 1 log10; EC50 (HIV-1 clinical isolates; PBMCs, CRF01_AE subtype, N = 7, ref protocol Section 1.4.1.2): 77 nM; Fold less susceptible, CRF01_AE (clade AE) compared to clade B (HIV-1 clinical isolates; in vitro, ref protocol Section 1.4.1): 2-3 fold; EC50 (93 subtype B viruses): 2.2 nM; Reduction in clearance in African-American participants ([2]; compared with White participants): 23%; Additive residual error ([2]; final population PK model): 37400; First-order absorption rate (Ka), estimate ([2]; final population PK model): 0.0236 h⁻¹; Interindividual variance of CL ([2]; final population PK model): 0.0610; Interindividual variance of Ka ([2]; final population PK model): 0.164; Interindividual variance of V ([2]; final population PK model): 0.462; Interoccasion variance of F1 ([2]; final population PK model): 0.0512; Proportional residual error ([2]; final population PK model): 0.0165; clearance ([2]; human, in vivo, oral, final population PK model, read-out: Clearance (CL), estimate (converted)): 37.3 mL/min; Vd ([2]; human, in vivo, oral, final population PK model, read-out: Volume of distribution (V), estimate): 5.58 L; Increase in clearance in participants with Grade ≥2 diarrhea ([2]; relative to no diarrhea): 18%; Mean time to onset of first diarrhea event ([3]; 60 mg arm): 48.4 days; Mean time to onset of first diarrhea event ([3]; 120 mg arm): 19.9 days; Mean duration of first diarrhea event ([3]; 120 mg arm (longest)): 104.2 days; Mean time to onset of first diarrhea event ([3]; 180 mg arm): 11.3 days; SAE considered related to study drug ([3]; GSK3532795 120 mg (no action taken), EFV (led to discontinuation)): Grade 3 abdominal pain; Grade 1–4-related abdominal pain [3, 9]: 6–16%; Grade 1–4-related diarrhea [3, 9]: 27–51%; Adverse events leading to discontinuation [3, 10]: 5%; Serious adverse events [3, 10]: 5%; Frequency of Grade 1–4-related AEs ([3]; GSK3532795 arms pooled, EFV 600 mg, through Week 24): 53%; Genotoxicity in rat micronucleus assay [4]: not genotoxic; EC50 [5]: 15 nM; P-gp inhibition (P-gp): No P-gp inhibition; EC50 ([6]; V362I plus secondary change-containing viruses, read-out: EC50, median): 25 nM; Loss of susceptibility ([6]; virus with the A364V change): > 100 fold; P-gp substrate status [7]: substrate of mouse P-glycoprotein (P-gp); IC50 (OATP1B3): 4000 nM
